Data reported in patent US10245267B2, “Biaryl amide compounds as kinase inhibitors” (NOVARTIS AG, priority 2013, dated 2019).
Read-outs that look alike come from different tables or passages of the source.

Tests used:
[1] = biological target: C-Raf FL (full-length C-Raf protein) (Homo sapiens (Human), UniProt P04049, Y340E/Y341E); format: biochemical; settings: read-out: c-Raf FL IC-50
Source text: In Vitro Raf Activity Determination
Sf9 cells co-expressing both proteins were lysed and subjected to immobilized nickel chromatography and eluted with Imidazole. A second column (StrepII binding column) was used and eluted with desthiobiotin. Protein Tags were removed using Prescission enzyme and the protein was further purified using a flowthrough step to remove tags.
C-Raf FL refers to the full-length C-Raf protein.
Full length MEK1 with an inactivating K97R ATP binding site mutation is utilized as a RAF substrate. The MEK1 cDNA was subcloned with an N-terminal (his)6 tag into a vector for E. Coli expression. The MEK1 substrate was purified from E. Coli lysate by nickel affinity chromatography followed by anion exchange. The final MEK1 preparation was biotinylated (Pierce EZ-Link Sulfo-NHS-LC-Biotin) and concentrated.
(§1) Assay buffer: 50 mM Tris, pH 7.5, 15 mM MgCl2, 0.01% Bovine Serum Albumin (BSA), 1 mM dithiothreitol (DTT) Stop buffer: 60 mM ethylenediaminetetraacetic acid (EDTA), 0.01% Tween® 20
biotinylated Mek, kinase dead
(§2) 384 well low volume assay plates (White Greiner® plates)
(§3) biotinylated Mek, Kinase dead approximately 10 nM
(§4) Pre-incubation time with compounds 60 minutes at room temperature
(§5) Reaction time 1 or 3 hours at room temperature
(§6) The plate was incubated for 60 minutes at room temperature. […] The additions were carried out under dark conditions to protect the detection beads from light. A lid was placed on top of the plate and incubated for 1 hour at room temperature, then the luminescence was read on a PerkinElmer Envision instrument.

[2] = biological target: b-Raf(V600E) (Homo sapiens (Human), UniProt P15056, V600E); settings: read-out: b-Raf IC-50; Table 2; Alpha Screen, ATP 10 μM, 3 hours reaction
Procedure: In Vitro Raf Activity Determination
Full length MEK1 with an inactivating K97R ATP binding site mutation is utilized as a RAF substrate.
as §1
biotinylated Mek, kinase dead
as §2, §3, §4, §5, §6

[3] = Table 2, Alpha Screen, ATP 1 uM, 1 hour reaction

Sequence of b-Raf(V600E) (P15056 whole entry V600E): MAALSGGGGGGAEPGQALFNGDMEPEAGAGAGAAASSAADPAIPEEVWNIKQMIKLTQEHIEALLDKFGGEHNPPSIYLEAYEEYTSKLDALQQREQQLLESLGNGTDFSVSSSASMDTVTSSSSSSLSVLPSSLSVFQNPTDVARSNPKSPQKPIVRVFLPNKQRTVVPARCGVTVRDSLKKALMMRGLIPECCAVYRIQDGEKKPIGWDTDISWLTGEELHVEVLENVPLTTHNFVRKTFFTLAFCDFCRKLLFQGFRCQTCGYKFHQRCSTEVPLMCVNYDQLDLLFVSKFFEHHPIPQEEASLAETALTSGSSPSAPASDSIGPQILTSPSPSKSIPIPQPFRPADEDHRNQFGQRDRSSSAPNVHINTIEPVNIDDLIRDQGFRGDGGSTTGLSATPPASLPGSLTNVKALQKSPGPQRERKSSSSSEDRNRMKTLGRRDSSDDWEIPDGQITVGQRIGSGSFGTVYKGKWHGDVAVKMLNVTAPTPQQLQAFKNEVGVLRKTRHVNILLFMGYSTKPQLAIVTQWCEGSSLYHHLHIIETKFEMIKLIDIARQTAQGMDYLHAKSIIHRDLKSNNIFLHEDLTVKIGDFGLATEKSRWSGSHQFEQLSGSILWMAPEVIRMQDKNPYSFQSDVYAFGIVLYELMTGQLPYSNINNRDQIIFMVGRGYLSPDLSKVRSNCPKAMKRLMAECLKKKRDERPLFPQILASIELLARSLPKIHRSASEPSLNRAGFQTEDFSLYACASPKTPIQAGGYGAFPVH
Sequence of C-Raf FL (full-length C-Raf protein) (P04049 whole entry Y340E/Y341E): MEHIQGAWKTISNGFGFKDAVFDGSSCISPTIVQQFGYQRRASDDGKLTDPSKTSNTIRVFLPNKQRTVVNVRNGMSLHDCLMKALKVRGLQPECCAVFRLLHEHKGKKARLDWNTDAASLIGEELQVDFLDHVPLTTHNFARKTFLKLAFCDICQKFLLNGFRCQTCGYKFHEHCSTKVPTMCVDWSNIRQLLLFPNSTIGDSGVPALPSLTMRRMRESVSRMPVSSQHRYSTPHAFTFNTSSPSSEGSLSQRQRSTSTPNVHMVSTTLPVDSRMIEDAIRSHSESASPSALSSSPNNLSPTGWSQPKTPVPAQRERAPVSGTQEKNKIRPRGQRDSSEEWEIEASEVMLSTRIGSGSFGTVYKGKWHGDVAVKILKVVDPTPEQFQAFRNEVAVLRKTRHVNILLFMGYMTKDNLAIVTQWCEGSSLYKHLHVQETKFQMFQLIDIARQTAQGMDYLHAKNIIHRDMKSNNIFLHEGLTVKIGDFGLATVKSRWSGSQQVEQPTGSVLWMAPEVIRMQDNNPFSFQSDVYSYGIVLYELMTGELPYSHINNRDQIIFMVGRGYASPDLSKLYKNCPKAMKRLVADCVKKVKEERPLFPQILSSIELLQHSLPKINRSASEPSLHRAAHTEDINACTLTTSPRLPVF
Sequence of C-Raf FL (full-length C-Raf protein) (P63104 whole entry partner): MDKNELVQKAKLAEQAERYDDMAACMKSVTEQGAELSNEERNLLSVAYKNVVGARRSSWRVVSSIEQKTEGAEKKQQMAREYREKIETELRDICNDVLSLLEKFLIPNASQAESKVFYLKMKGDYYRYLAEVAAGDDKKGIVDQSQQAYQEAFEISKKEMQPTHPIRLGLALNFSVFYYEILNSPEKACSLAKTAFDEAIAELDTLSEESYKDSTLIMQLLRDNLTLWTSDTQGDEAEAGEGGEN

**Q.** Which IC50 [1] does the source give for Cc1ncc(NC(=O)c2cccc(C(F)(F)F)c2)cc1-c1cc(N2CCOCC2)nc(NC[C@@H](C)O)n1 [Example 743, (R)—N-(5-(2-((2-hydroxypropyl)amino)-6-morpholinopyrimidin-4-yl)-6-methylpyridin-3-yl)-3-(trifluoromethyl) benzamide] here?
**A.** Its IC50 is 0.8 nM.

**Q.** With CCNc1nc(-c2cc(NC(=O)c3ccnc(C(F)(F)F)c3)ccc2C)cc(N2CCOCC2)n1 [Example 719, N-(3-(2-(ethylamino)-6-morpholinopyrimidin-4-yl)-4-methylphenyl)-2-(trifluoromethyl) isonicotinamide] as the compound, how does the IC50 [2] read?
**A.** The IC50 was 2 nM.

**Q.** With Cc1ccc(NC(=O)c2cccc(C(F)(F)F)c2)cc1-c1cc(N2CCOCC2)c(OCCO)nn1 [Example 590, N-(3-(6-(2-hydroxyethoxy)-5-morpholinopyridazin-3-yl)-4-methylphenyl)-3-(trifluoromethyl)benzamide] as the compound, how does the IC50 [1, 3] read?
**A.** Its IC50 is 0.2 nM.

**Q.** And the IC50 [2]?
**A.** Its IC50 is 0.9 nM.

**Q.** Which IC50 [1, 3] does the source give for CCNc1nc(-c2cc(C(=O)Nc3cccc(C(F)(F)F)c3)ccc2C)cc(N2CCOCC2)n1 [Example 710, 3-(2-(ethylamino)-6-morpholinopyrimidin-4-yl)-4-methyl-N-(3-(trifluoromethyl)phenyl) benzamide] here?
**A.** Its IC50 is 1.6 nM.

**Q.** And the IC50 [2]?
**A.** The IC50 was 4 nM.
